“And” between values parts separate entries of the source, which are not always exact repeats. Identical values can stand only once. “Also recorded” adds a separate entry of the source. Like-named read-outs stand apart in the source and are kept apart here. One block for each compound: values may come before it.
Tests used:
[1] = Plasma pharmacokinetics and tissue distribution in Capan-1 tumour-bearing mice; assay type: in vivo
PARP [2] = biological target: T1, PARP (Homo sapiens, UniProt P09874); assay: PARP activity in permeabilised or intact Capan-1 cells with carboxy metabolite; assay type: cell-based
T1 sequence (P09874 whole entry): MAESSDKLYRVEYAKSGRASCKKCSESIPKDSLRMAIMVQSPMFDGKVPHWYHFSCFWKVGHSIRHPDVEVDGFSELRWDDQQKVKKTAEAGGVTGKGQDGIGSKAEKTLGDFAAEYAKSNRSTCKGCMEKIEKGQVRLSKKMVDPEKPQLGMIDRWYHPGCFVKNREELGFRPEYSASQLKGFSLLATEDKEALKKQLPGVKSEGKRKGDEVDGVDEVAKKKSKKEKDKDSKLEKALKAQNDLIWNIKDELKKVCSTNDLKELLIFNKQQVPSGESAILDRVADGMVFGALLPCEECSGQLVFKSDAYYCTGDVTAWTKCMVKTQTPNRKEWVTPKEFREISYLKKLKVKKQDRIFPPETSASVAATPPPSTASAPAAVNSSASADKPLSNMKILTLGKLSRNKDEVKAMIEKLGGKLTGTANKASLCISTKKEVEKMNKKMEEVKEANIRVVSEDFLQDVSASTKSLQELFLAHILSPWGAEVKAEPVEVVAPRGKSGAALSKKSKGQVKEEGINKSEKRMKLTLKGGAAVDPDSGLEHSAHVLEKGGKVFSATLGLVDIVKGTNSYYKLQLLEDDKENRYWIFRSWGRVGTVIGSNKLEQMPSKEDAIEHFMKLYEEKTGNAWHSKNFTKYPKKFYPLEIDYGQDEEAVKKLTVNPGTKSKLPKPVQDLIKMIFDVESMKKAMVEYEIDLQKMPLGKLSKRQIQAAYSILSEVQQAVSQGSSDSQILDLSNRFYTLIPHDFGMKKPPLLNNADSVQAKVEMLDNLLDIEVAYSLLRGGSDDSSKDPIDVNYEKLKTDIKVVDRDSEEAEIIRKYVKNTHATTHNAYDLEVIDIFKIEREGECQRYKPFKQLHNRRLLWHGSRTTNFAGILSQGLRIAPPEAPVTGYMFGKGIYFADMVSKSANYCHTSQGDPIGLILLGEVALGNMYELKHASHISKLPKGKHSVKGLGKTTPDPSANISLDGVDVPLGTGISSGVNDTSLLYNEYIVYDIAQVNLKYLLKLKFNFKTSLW

[3] = pre-clinical studies; ref Calabrese et al, 2004; cited from earlier work
SW620 cells = assay: [14C]rucaparib uptake and retention in SW620 cells; assay type: in vitro ADME, human; settings: for effect of transport inhibitor on rucaparib uptake: ouabain 30 or 100 μM, cytochalasin B 0.1 or 1 μM, dipyridamole 10 or 100 μM, BCH 1 or 2 mM
MX-1 xenografts [4] = settings: ref Shen et al, 2013, cited from earlier work
[5] = biological target: Poly(ADP-ribose) polymerase-1 (Homo sapiens, UniProt P09874); assay: PARP activity in cancer cell lines after a 30-min pulse of rucaparib; assay type: cell-based
Poly(ADP-ribose) polymerase-1 (Homo sapiens, UniProt P09874), sequence (P09874 whole entry): as above

[6] = [14C]rucaparib uptake and retention in SW620 cells; assay type: in vitro ADME, human; settings: human, SW620 cells
PARP [7] = biological target: T1, PARP; settings: patients, after five daily doses; ref Plummer et al, 2008; cited from earlier work
Capan-1 xenografts [8] = settings: ref Drew et al, 2011; cited from earlier work
[9] = tested on: Poly(ADP-ribose) polymerase-1; assay type: in vivo, mice
[10] = biological target: T2, Poly(ADP-ribose) polymerase-1 (Mus musculus, UniProt P11103); assay type: in vivo, mice; settings: 24 h after single dose 150 mg kg−1 p.o. or 50 mg kg−1 i.p.
T2 sequence (P11103 2-1013): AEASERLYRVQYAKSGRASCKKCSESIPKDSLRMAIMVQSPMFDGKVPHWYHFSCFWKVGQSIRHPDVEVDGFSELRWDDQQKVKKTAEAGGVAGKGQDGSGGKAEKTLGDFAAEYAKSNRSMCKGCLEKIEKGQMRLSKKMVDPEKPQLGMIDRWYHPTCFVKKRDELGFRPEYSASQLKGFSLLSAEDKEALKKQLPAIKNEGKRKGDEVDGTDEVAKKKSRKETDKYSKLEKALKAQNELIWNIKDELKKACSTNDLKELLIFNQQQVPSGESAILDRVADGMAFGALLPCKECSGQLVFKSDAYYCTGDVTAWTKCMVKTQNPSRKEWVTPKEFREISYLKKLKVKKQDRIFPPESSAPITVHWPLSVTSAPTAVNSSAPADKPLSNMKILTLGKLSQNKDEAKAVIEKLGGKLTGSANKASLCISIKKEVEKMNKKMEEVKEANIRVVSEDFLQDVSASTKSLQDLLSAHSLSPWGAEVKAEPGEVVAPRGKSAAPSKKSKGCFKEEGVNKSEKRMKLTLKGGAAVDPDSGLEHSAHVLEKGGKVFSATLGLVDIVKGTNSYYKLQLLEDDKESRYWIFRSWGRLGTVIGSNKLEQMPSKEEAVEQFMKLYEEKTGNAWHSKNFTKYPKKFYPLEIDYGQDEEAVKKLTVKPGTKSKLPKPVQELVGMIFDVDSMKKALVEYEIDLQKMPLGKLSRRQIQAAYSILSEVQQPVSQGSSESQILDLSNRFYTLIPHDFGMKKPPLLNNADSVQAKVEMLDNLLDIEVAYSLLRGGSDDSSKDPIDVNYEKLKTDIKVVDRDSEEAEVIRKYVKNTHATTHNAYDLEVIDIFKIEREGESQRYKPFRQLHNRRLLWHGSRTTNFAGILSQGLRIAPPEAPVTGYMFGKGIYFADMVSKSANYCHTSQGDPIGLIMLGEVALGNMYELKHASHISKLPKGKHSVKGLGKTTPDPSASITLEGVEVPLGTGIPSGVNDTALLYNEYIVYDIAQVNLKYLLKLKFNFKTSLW

[11] = tested on: Poly(ADP-ribose) polymerase-1; assay: in vivo; assay type: in vivo, mice; settings: for PARP activity in tumours, % of control: 7 days
[12] = biological target: T2, Poly(ADP-ribose) polymerase-1; assay: in vivo; assay type: in vivo, mice
Capan-1 xenografts [13] = assay: Efficacy study in mice bearing Capan-1 xenografts; assay type: in vivo
MX-1 xenografts [14] = assay: Efficacy study in mice bearing MX-1 xenografts; assay type: in vivo; settings: MX-1 tumour-bearing mice
[15] = SW620 cells, 400 nM [14C]rucaparib
[16] = Capan-1 and MX-1 cells, 30-min pulse with 400 nM
[17] = 10 mg kg−1 i.p. daily × five weekly × six

- metabolite concentration relative to parent drug in tumour ([1]; after single dose of rucaparib): lower in the tumour
- PARP inhibition after pre-incubation of intact cells (PARP [2]): did not result in PARP inhibition
SMILES: O=C(O)c1ccc(-c2[nH]c3cc(F)cc4c3c2CCNC4=O)cc1 [4-(8-fluoro-6-oxo-3,4,5,6-tetrahydro-1H-azepino[5,4,3-cd]indol-2-yl)benzoic acid]
- metabolite concentration relative to parent drug in plasma ([1]; after single dose of rucaparib): higher concentrations than the parent drug in the plasma

SMILES: CN(C)Cc1ccc(-c2nc3cccc4c3n2CCNC4=O)cc1 [AG14361]
- tumour distribution and retention [3]: distributed well to the tumour and was retained in the tumour after clearance from the plasma

SMILES: NC1(C(=O)O)CC2CCC1C2 (stereo not shown) [BCH]
- effect of transport inhibitor on rucaparib uptake (SW620 cells; [15]): neither the nucleoside transport inhibitor, dipyridamole, nor the amino-acid transport inhibitor, BCH, inhibited accumulation

SMILES: Cn1ncnc1[C@H]1c2n[nH]c(=O)c3cc(F)cc(c23)N[C@@H]1c1ccc(F)cc1 [BMN 673]
- efficacy against MX-1 xenografts (MX-1 xenografts [4]; once or twice daily administration): regressions of MX-1 xenografts

SMILES: C[C@@H]1O[C@@H](O[C@H]2C[C@@H](O)[C@]3(CO)[C@H]4[C@H](O)C[C@]5(C)[C@@H](C6=CC(=O)OC6)CC[C@]5(O)[C@@H]4CC[C@]3(O)C2)[C@H](O)[C@H](O)[C@H]1O [Ouabain]
- effect of transport inhibitor on rucaparib uptake (SW620 cells; [15]): only a very modest effect

SMILES: C=C1[C@@H](C)[C@H]2[C@H](Cc3ccccc3)NC(=O)[C@]23OC(=O)/C=C/[C@H](O)CCC[C@@H](C)C/C=C/[C@H]3[C@@H]1O [cytochalasin B]
- effect of transport inhibitor on rucaparib uptake (SW620 cells; [15]): no effect on uptake

SMILES: OCCN(CCO)c1nc(N2CCCCC2)c2nc(N(CCO)CCO)nc(N3CCCCC3)c2n1 [dipyridamole]
- effect of transport inhibitor on rucaparib uptake (SW620 cells; [15]): neither the nucleoside transport inhibitor, dipyridamole, nor the amino-acid transport inhibitor, BCH, inhibited accumulation

SMILES: O=C(c1cc(Cc2n[nH]c(=O)c3ccccc23)ccc1F)N1CCN(C(=O)C2CC2)CC1 [olaparib]
- efficacy against MX-1 xenografts (MX-1 xenografts [4]; 100 mg kg−1 daily for 28 days): completely ineffective

- PARP activity 1 week after drug removal [5, 16]: still below baseline
- persistence of PARP inhibition after pulse [5, 16]: 72 h
- remaining activity at 0.4 µM ([5]; SW-620, read-out: PARP activity, % of control): 35 ± 12%
- inhibition at 0.4 µM ([5]; read-out: PARP inhibition, human cancer cell lines (SW620, Capan-1, MX-1), for at least 72 h after 30-min pulse of 400 nM): ≥ 50%
- PARP activity below baseline 1 week after initial exposure ([5]; where measured, 30-min pulse): ≥ 30%
- rucaparib lost by efflux in the first 5–10 min (SW620 cells; SW620 cells after 30-min pulse with 400 nM): up to 50%
- intracellular concentration (SW620 cells; SW620 cells exposed to 400 nM [14C]rucaparib, steady state): > 10 µM
- time to steady-state intracellular level (SW620 cells; [15]): ≤ 30 min
- uptake with sodium buffer replaced by potassium buffer (SW620 cells; SW620 cells, transport buffer): reduced uptake slightly
- uptake with sodium replaced by choline (SW620 cells; SW620 cells, transport buffer): no effect
- half-life [6]: 20 min
- PARP activity in PBMCs, % of control ([12]; 24 h after single dose 10 mg kg−1 i.p.): > 35%
- inhibition at 10 mg/kg ([12]; CAPAN-1, mouse, ip, read-out: initial PARP inhibition in brain): ~50%
- reduction in brain PARP activity ([12]; oral dosage, 4 h): > 60%
- brain PARP activity after recovery, % of baseline ([12]; oral dosage, after 4 h up to 7 days): 70–80%
- PARP activity in PBMCs up to 6 h post-administration ([12]; single dose 10 mg kg−1 i.p.): profound suppression
- weight loss (Capan-1 xenografts [13]; Capan-1 tumour-bearing mice, any of the schedules): no significant weight loss
- dose linearity ([1]; mice): apparent dose linearity
- rucaparib in tumour at 3 days ([1]; oral rucaparib): still detectable in most mice
- time at which parent drug detectable in plasma ([1]; single dose 10 mg kg−1 i.p., all three mice per group): 30 min
- time up to which parent drug detectable in plasma ([1]; single dose 50–150 mg kg−1 p.o., all three mice per group): up to 4 h
- weight loss at nadir (MX-1 xenografts [14]): ≤ 4%
SMILES: CNCc1ccc(-c2[nH]c3cc(F)cc4c3c2CCNC4=O)cc1 [rucaparib]
- Vmax of rucaparib uptake (SW620 cells; SW620 cells, 30 min exposure, mean and s.d. of three independent experiments): 469±22 pmol per 10^6 cells per 10 min
- PARP activity in peripheral blood mononuclear cells (PARP [7]): still suppressed 3 days after the final of five daily doses
- efficacy of daily for 5 days every week for 6 weeks vs once a day for 10 days (Capan-1 xenografts [8]): more effective
- PARP inhibition in MX-1 tumours ([9]; 24 h after single dose 50 mg kg−1 i.p.): > 55%
- PARP inhibition in MX-1 tumours ([9]; 24 h after single dose 150 mg kg−1 p.o.): > 80%
- PARP inhibition in MX-1 tumours ([9]; 3 days after 150 mg kg−1): 87–92%
- PARP inhibition in MX-1 tumours ([9]; 7 days after 150 mg kg−1): 44–74%
- PARP inhibition in livers [10]: not in the livers; also recorded: recovered completely within 24 h
- PARP inhibition in Capan-1 tumours ([11]; 7 days following single dose 10 mg kg−1 i.p.): 70%
- PARP inhibition in Capan-1 tumours ([11]; 7 days following single dose 150 mg kg−1 p.o.): 90%
- PARP activity in tumours, % of control ([11]; single dose 50 mg kg−1 p.o.): ~10%
- PARP activity in tumours, % of control ([11]; single dose 150 mg kg−1 p.o.): ~10%
- PARP activity in tumours, % of baseline ([11]; after 48 h, 10 mg kg−1 i.p.): ~30%
- PARP activity in tumours, % of baseline ([11]; between 30 min and 24 h, all doses and routes (10 mg kg−1 i.p.; 50, 100, 150 mg kg−1 p.o.)): < 20%
- partial regressions (Capan-1 xenografts [13]; [17]): two persistent partial regressions
- time to quadruple in volume (RTV4) (Capan-1 xenografts [13]; [17]): not reached during the 50-day trial
- Complete regressions (Capan-1 xenografts [13]; 10 mg kg−1 i.p., d × 5 w × 6): 1/10
- Mice remaining at day 40 (Capan-1 xenografts [13]; 10 mg kg−1 i.p., d × 5 w × 6): 6
- Complete regressions (Capan-1 xenografts [13]; 10 mg kg−1 i.p., d × 5 w × 6, listed as Rucaparib): one complete tumour regression
- Complete regressions (Capan-1 xenografts [13]; 50 mg kg−1 p.o., d × 5 w × 6): 0/10
- Mice remaining at day 40 (Capan-1 xenografts [13]; 50 mg kg−1 p.o., d × 5 w × 6): 2
- effect on tumour growth (Capan-1 xenografts [13]; 150 mg kg−1 p.o. daily × five weekly × six): equivalent effect on tumour growth to 10 mg kg^−1 i.p.
- antitumour effect of once weekly schedule (Capan-1 xenografts [13]; 150 mg kg−1 p.o. once a week for 6 weeks, compared with other schedules): as effective as; also recorded: greatest antitumour effect
- Complete regressions (Capan-1 xenografts [13]; 150 mg kg−1 p.o., 1 × w × 6): three complete regressions and 3/10
- Mice remaining at day 40 (Capan-1 xenografts [13]; 150 mg kg−1 p.o., 1 × w × 6): 7
- Complete regressions (Capan-1 xenografts [13]; 150 mg kg−1 p.o., 3 × w × 6): 1/10
- Mice remaining at day 40 (Capan-1 xenografts [13]; 150 mg kg−1 p.o., 3 × w × 6): 5
- Complete regressions (Capan-1 xenografts [13]; 150 mg kg−1 p.o., d × 5 w × 6): 1/10
- Mice remaining at day 40 (Capan-1 xenografts [13]; 150 mg kg−1 p.o., d × 5 w × 6): 5
- Complete regressions (Capan-1 xenografts [13]; 150 mg kg−1 p.o., dx5 every 3w): 1/10
- Mice remaining at day 40 (Capan-1 xenografts [13]; 150 mg kg−1 p.o., dx5 every 3w): 5
- effect on tumour growth (Capan-1 xenografts [13]; other dosing schedules incl. 150 mg kg−1 p.o. daily for five days every 3 weeks): only marginal effect on tumour growth

— paper PMC3992512 (British Journal of Cancer, 2014)
